The test relates to HCT116. The note with it: 72 h. The essentials:
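In 1536-well plates, 250 HCT116 cells per well were seeded and left for 5 h to attach. Luminescence from CellTiter-Glo was set against vehicle (0%) and positive control (-100%), and pattern correction was applied. IC50 and maximal efficacy come from four-parameter Hill fitting.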

Where a name gives a salt, the structure may show the parent alone.

For `CC(=O)N(CC(=O)N(C)C)c1ccccc1` [Phenylacetylglycine dimethylamide], the IC50 cell viability is greater than 45.8 µM (ICRF193 0 nM) and greater than 45.8 µM (ICRF193 200 nM).
For `CNC[C@H](O)c1cccc(O)c1` [Phenylephrine hydrochloride], the IC50 cell viability by setting is: (ICRF193 0 nM) greater than 45.8 µM; (ICRF193 200 nM) greater than 45.8 µM.
For `CC(N)C(O)c1ccccc1` (stereo unspecified) [Phenylpropanolamine hydrochloride], the IC50 cell viability (ICRF193 0 nM) is greater than 45.8 µM and the IC50 cell viability (ICRF193 200 nM) is greater than 45.8 µM.
Turning to `CN(C)CCOc1ccccc1Cc1ccccc1` [Phenyltoloxamine citrate], the IC50 cell viability is greater than 45.8 µM (ICRF193 0 nM) and greater than 45.8 µM (ICRF193 200 nM).
Consider `O=C(CCc1ccc(O)cc1)c1c(O)cc(O)cc1O[C@@H]1O[C@H](CO)[C@@H](O)[C@H](O)[C@H]1O` [Phlorizin], for which the IC50 cell viability was greater than 45.8 µM (ICRF193 0 nM) and greater than 45.8 µM (ICRF193 200 nM).
For `COP(=S)(OC)SCN1C(=O)c2ccccc2C1=O` [Phosmet], the IC50 cell viability by setting is: (ICRF193 0 nM) greater than 45.8 µM; (ICRF193 200 nM) greater than 45.8 µM.
As to `C#CC(C)(CC)OC(=O)c1ccccc1C(=O)O` (stereo unspecified) [Phthalofyne], the IC50 cell viability (ICRF193 0 nM) was greater than 45.8 µM and the IC50 cell viability (ICRF193 200 nM) is greater than 45.8 µM.
For `CCCCCCCCCCCCCCCC(=O)O[C@@H]1CC(C)=C(/C=C/C(C)=C/C=C/C(C)=C/C=C/C=C(C)/C=C/C=C(C)/C=C/C2=C(C)C[C@@H](OC(=O)CCCCCCCCCCCCCCC)CC2(C)C)C(C)(C)C1` [Physalien], the IC50 cell viability is greater than 45.8 µM (ICRF193 0 nM) and greater than 45.8 µM (ICRF193 200 nM).
With `CNC(=O)Oc1ccc2c(c1)[C@]1(C)CCN(C)[C@@H]1N2C` [Physostigmine], the IC50 cell viability by setting is: (ICRF193 0 nM) greater than 45.8 µM; (ICRF193 200 nM) greater than 45.8 µM.
For the compound `O=P(O)(O)O[C@H]1[C@H](OP(=O)(O)O)[C@@H](OP(=O)(O)O)[C@H](OP(=O)(O)O)[C@@H](OP(=O)(O)O)[C@H]1OP(=O)(O)O` [Phytic acid], the IC50 cell viability reads like this: (ICRF193 0 nM) greater than 45.8 µM; (ICRF193 200 nM) greater than 45.8 µM.
The compound `CC1=C(C/C=C(\C)CCC[C@H](C)CCC[C@H](C)CCCC(C)C)C(=O)c2ccccc2C1=O` [Phytonadione] showed an IC50 cell viability (ICRF193 0 nM) greater than 45.8 µM and an IC50 cell viability (ICRF193 200 nM) greater than 45.8 µM.
Take `Nc1c(NC/C=C\COc2cc(CN3CCCCC3)ccn2)c(=O)c1=O` [Pibutidine]: the IC50 cell viability was greater than 45.8 µM (ICRF193 0 nM) and greater than 45.8 µM (ICRF193 200 nM).
With `O=C(O)c1ccccn1` [Picolinic acid], the IC50 cell viability is greater than 45.8 µM (ICRF193 0 nM) and greater than 45.8 µM (ICRF193 200 nM).
As for `O=S(=O)(O)Oc1ccc(C(c2ccc(OS(=O)(=O)O)cc2)c2ccccn2)cc1` [Picosulfate sodium], the IC50 cell viability is greater than 45.8 µM (ICRF193 0 nM) and greater than 45.8 µM (ICRF193 200 nM).
As for `CC[C@@H]1C(=O)OC[C@@H]1Cc1cncn1C` [Pilocarpine], the IC50 cell viability is greater than 45.8 µM (ICRF193 0 nM) and greater than 45.8 µM (ICRF193 200 nM).
For the compound `Cc1cccc(C)c1NC(=O)CC12CCCN1CCC2` [Pilsicainide], the IC50 cell viability (ICRF193 0 nM) is greater than 45.8 µM and the IC50 cell viability (ICRF193 200 nM) is greater than 45.8 µM.
In the case of `C[C@@H]1C/C=C/C=C/C=C/C=C/[C@H](O[C@@H]2O[C@H](C)[C@@H](O)[C@H](N)[C@@H]2O)C[C@@H]2O[C@](O)(C[C@@H](O)C[C@H]3O[C@@H]3/C=C/C(=O)O1)C[C@H](O)[C@H]2C(=O)O` [Pimaricin], the IC50 cell viability was greater than 45.8 µM (ICRF193 0 nM) and greater than 45.8 µM (ICRF193 200 nM).
As to `COc1ccc(-c2nc3cc(C4=NNC(=O)CC4C)ccc3[nH]2)cc1` (stereo unspecified) [Pimobendan], the IC50 cell viability was greater than 45.8 µM (ICRF193 0 nM) and greater than 45.8 µM (ICRF193 200 nM).
With `CC(C)NCC(O)COc1cccc2[nH]ccc12` (stereo unspecified) [Pindolol], the IC50 cell viability was greater than 45.8 µM (ICRF193 0 nM) and greater than 45.8 µM (ICRF193 200 nM).
The compound `CCc1ccc(CCOc2ccc(CC3SC(=O)NC3=O)cc2)nc1` (stereo unspecified) [Pioglitazone hydrochloride] returned an IC50 cell viability (ICRF193 0 nM) greater than 45.8 µM and an IC50 cell viability (ICRF193 200 nM) greater than 45.8 µM.
As to `NC(=O)C1(N2CCCCC2)CCN(CCCC(=O)c2ccc(F)cc2)CC1` [Pipamperone dihydrochloride], the IC50 cell viability is greater than 45.8 µM (ICRF193 0 nM) and greater than 45.8 µM (ICRF193 200 nM).
Consider `CC(=O)O[C@H]1C[C@@H]2CC[C@@H]3[C@H](CC[C@@]4(C)[C@H]3C[C@H](N3CC[N+](C)(C)CC3)[C@@H]4OC(C)=O)[C@@]2(C)C[C@@H]1N1CC[N+](C)(C)CC1` [Pipecuronium bromide], for which the IC50 cell viability is greater than 45.8 µM (ICRF193 0 nM) and greater than 45.8 µM (ICRF193 200 nM).
For `CCn1cc(C(=O)O)c(=O)c2cnc(N3CCNCC3)nc21` [Pipemidic acid], the IC50 cell viability is, setting by setting: (ICRF193 0 nM) greater than 45.8 µM; (ICRF193 200 nM) greater than 45.8 µM.
Regarding `CCN1CCN(C(=O)N[C@@H](C(=O)N[C@@H]2C(=O)N3[C@@H]2SC(C)(C)[C@@H]3C(=O)O)c2ccccc2)C(=O)C1=O` [Piperacillin sodium salt], the IC50 cell viability is, setting by setting: (ICRF193 0 nM) greater than 45.8 µM; (ICRF193 200 nM) greater than 45.8 µM.
`C1CNCCN1` [Piperazine]: the IC50 cell viability (ICRF193 0 nM) is greater than 45.8 µM and the IC50 cell viability (ICRF193 200 nM) is greater than 45.8 µM.
With `CCN1CCCC(OC(=O)C(c2ccccc2)c2ccccc2)C1` (stereo unspecified) [Piperidolate hydrochloride], the IC50 cell viability reads like this: (ICRF193 0 nM) greater than 45.8 µM; (ICRF193 200 nM) greater than 45.8 µM.
On to `O=C(OCCN1CCCCC1)C(O)(c1ccccc1)c1ccccc1` [Piperilate hydrochloride], for which the IC50 cell viability is greater than 45.8 µM (ICRF193 0 nM) and greater than 45.8 µM (ICRF193 200 nM).
For `CC1CCCCN1CCCOC(=O)c1ccccc1` (stereo unspecified) [Piperocaine hydrochloride], the IC50 cell viability is, setting by setting: (ICRF193 0 nM) greater than 45.8 µM; (ICRF193 200 nM) greater than 45.8 µM.

The values above are taken from the supplement of paper PMC12137928.
